Results published in patent publication US11140896B2, “Two components disinfecting composition containing peracetic acid and chelating agent” (ECOLAB USA INC., priority 2014, dated 2021).

Experiment: Screening of different concentrations of the chelating agent GLDA (peracetic acid concentration over storage)
Assay type: physicochemical

SMILES: O=C([O-])CC[C@@H](C(=O)[O-])N(CC(=O)[O-])CC(=O)[O-].[Na+].[Na+].[Na+].[Na+] [GLDA, N,N-bis(carboxymethyl)-L-glutamic acid tetrasodium salt]
- peracetic acid concentration of the aqueous disinfectant solution (0.05 wt.-% GLDA in component (B), day 0, 23° C.): 2314 ppm
- peracetic acid concentration of the aqueous disinfectant solution (0.05 wt.-% GLDA in component (B), day 1, 23° C.): 2220 ppm
- peracetic acid concentration of the aqueous disinfectant solution (0.05 wt.-% GLDA in component (B), day 4, 23° C.): 1847 ppm
- peracetic acid concentration of the aqueous disinfectant solution (0.05 wt.-% GLDA in component (B), day 6, 23° C.): 1753 ppm
- peracetic acid concentration of the aqueous disinfectant solution (0.05 wt.-% GLDA in component (B), day 7, 23° C.): 1653 ppm
- peracetic acid concentration of the aqueous disinfectant solution (0.05 wt.-% GLDA in component (B), day 8, 23° C.): 1563 ppm
- peracetic acid concentration of the aqueous disinfectant solution (0.05 wt.-% GLDA in component (B), day 9, 23° C.): 1466 ppm
- peracetic acid concentration of the aqueous disinfectant solution (0.05 wt.-% GLDA in component (B), day 15, 23° C.): 829 ppm
- peracetic acid concentration of the aqueous disinfectant solution (0.1 wt.-% GLDA in component (B), day 0, 23° C.): 2346 ppm
- peracetic acid concentration of the aqueous disinfectant solution (0.1 wt.-% GLDA in component (B), day 1, 23° C.): 2202 ppm
- peracetic acid concentration of the aqueous disinfectant solution (0.1 wt.-% GLDA in component (B), day 4, 23° C.): 1856 ppm
- peracetic acid concentration of the aqueous disinfectant solution (0.1 wt.-% GLDA in component (B), day 6, 23° C.): 1793 ppm
- peracetic acid concentration of the aqueous disinfectant solution (0.1 wt.-% GLDA in component (B), day 7, 23° C.): 1682 ppm
- peracetic acid concentration of the aqueous disinfectant solution (0.1 wt.-% GLDA in component (B), day 8, 23° C.): 1636 ppm
- peracetic acid concentration of the aqueous disinfectant solution (0.1 wt.-% GLDA in component (B), day 9, 23° C.): 1566 ppm
- peracetic acid concentration of the aqueous disinfectant solution (0.1 wt.-% GLDA in component (B), day 15, 23° C.): 1075 ppm
- stabilisation of peracetic acid, comparison of GLDA concentrations (0.1 wt.-% GLDA in the stabilizer component (B)): best stabilisation
- peracetic acid concentration of the aqueous disinfectant solution (0.5 wt.-% GLDA in component (B), day 0, 23° C.): 2408 ppm
- peracetic acid concentration of the aqueous disinfectant solution (0.5 wt.-% GLDA in component (B), day 1, 23° C.): 2113 ppm
- peracetic acid concentration of the aqueous disinfectant solution (0.5 wt.-% GLDA in component (B), day 4, 23° C.): 1821 ppm
- peracetic acid concentration of the aqueous disinfectant solution (0.5 wt.-% GLDA in component (B), day 6, 23° C.): 1718 ppm
- peracetic acid concentration of the aqueous disinfectant solution (0.5 wt.-% GLDA in component (B), day 7, 23° C.): 1682 ppm
- peracetic acid concentration of the aqueous disinfectant solution (0.5 wt.-% GLDA in component (B), day 8, 23° C.): 1625 ppm
- peracetic acid concentration of the aqueous disinfectant solution (0.5 wt.-% GLDA in component (B), day 9, 23° C.): 1512 ppm
- peracetic acid concentration of the aqueous disinfectant solution (0.5 wt.-% GLDA in component (B), day 15, 23° C.): 1016 ppm
- shelf life of the aqueous disinfectant use solution (component (B) comprised 0.05 wt.-%, 0.1 wt.-% or 0.5 wt.-% GLDA): about 14 days
